ChEMBL document CHEMBL5584204, “Discovery of a novel tetrahydroimidazo[1,2-a]pyridine-5-carboxylic acid derivative as a potent and selective heparanase-1 inhibitor utilizing an improved synthetic approach” (Bioorg Med Chem Lett, 2024)

Experiments:
[1] = Inhibition of GBA (unknown origin); parameters: species or system Homo sapiens
Beta-glucuronidase = target: T1, Beta-glucuronidase (Homo sapiens, UniProt P08236); test: Inhibition of GUSbeta (unknown origin)
T1 sequence (P08236 whole entry): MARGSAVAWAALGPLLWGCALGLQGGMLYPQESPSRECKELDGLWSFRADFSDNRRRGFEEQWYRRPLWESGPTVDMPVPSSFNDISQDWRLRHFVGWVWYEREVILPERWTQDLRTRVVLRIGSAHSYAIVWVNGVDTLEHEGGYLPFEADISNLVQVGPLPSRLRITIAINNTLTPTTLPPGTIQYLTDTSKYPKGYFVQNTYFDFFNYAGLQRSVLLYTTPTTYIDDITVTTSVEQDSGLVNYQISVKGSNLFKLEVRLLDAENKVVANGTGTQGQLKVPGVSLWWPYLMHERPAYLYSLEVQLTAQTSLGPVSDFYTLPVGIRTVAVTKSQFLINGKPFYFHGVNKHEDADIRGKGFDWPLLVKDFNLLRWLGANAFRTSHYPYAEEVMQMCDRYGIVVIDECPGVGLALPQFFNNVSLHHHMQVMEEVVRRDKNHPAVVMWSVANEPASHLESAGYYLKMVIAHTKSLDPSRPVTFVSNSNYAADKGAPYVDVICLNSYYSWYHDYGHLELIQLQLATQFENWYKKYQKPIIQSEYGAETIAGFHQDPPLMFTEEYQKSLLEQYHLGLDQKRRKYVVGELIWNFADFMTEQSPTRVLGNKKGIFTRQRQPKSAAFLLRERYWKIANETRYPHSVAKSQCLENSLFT

Heparanase = target: T2, Heparanase (Homo sapiens, UniProt Q9Y251); test: Inhibition of HPSE1 (unknown origin)
T2 sequence (Q9Y251 whole entry): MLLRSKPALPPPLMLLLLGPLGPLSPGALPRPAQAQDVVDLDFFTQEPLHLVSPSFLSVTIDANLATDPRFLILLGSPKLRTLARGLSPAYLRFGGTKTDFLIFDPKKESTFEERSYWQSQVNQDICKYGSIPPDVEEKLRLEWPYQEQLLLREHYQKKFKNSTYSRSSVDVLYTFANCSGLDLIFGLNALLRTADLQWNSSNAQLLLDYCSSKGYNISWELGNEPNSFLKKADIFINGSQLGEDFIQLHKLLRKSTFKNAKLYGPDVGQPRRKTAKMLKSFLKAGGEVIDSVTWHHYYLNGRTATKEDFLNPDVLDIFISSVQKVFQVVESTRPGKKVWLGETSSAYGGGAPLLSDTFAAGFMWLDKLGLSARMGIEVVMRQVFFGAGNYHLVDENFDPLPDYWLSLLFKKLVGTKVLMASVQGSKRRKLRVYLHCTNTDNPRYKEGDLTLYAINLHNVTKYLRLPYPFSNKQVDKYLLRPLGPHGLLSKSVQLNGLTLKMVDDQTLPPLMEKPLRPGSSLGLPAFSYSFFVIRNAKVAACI

IC50 [1] [µM]	IC50 (Beta-glucuronidase) [µM]	IC50 (Heparanase) [µM]	SMILES
0.439			CO[C@H]1[C@H](O)[C@@H](O)c2nc(CCc3cccc(Oc4ccccc4)c3)cn2[C@@H]1C(=O)O
1.25	7.21	0.057	O=C(O)[C@@H]1[C@@H](OCCc2ccccc2)[C@H](O)[C@@H](O)c2nc(CCc3cccc(Oc4ccccc4)c3)cn21
38.6	41.8	0.621	CC(C)O[C@H]1[C@H](O)[C@@H](O)c2nc(CCc3cccc(Oc4ccccc4)c3)cn2[C@@H]1C(=O)O
